Assay results taken from article PMC10758951, “mRNA display reveals a class of high-affinity bromodomain-binding motifs that are not found in the human proteome” (The Journal of Biological Chemistry, 2023).

Key:
[1] = Peptide solubility (as observed on sample preparation); type: physicochemical; conditions: dissolved in water or experimental buffer; qualitative statement
Procedure: The concentrations of the peptides used in this study were determined by measuring absorbance at 205 nm ([21]) and NMR ([22]) quantification using a known concentration of 4,4-dimethyl-4-silapentane-1-sulfonic acid as a reference. Peptides were first dissolved in either water or experimental buffer, and measurements were made on the soluble peptide remaining in solution following removal insoluble peptide via centrifugation.

[2] = molecular target: BRD3–BD1, BRD4–BD1, and BRD2–BD1; assay: SPR, stated jointly for the BD1 domains; type: binding, human; conditions: range over BRD3–BD1, BRD4–BD1 and BRD2–BD1; BD immobilized, peptide flowed; equilibrium steady state affinity analysis; read-out: Affinities (KD) for the three BD1 domains, SPR
Excerpt: (§1) The BDs from human BRD2 (BD1: 65–194; BD2: 347–455), BRD3 (BD1: 25–147; BD2: 307–419), and BRD4 (BD1: 42–168; BD2: 348–464) were expressed in Escherichia coli from pQE80L-Navi (Qiagen) as N-terminally His-tagged and biotinylated proteins for SPR. For other experiments, they were expressed from pGEX-6P (Cytiva) as N-terminal glutathione-S-transferase-fusion proteins. Expression and purification, via affinity chromatography and size-exclusion chromatography, of unlabeled and uniformly ^15N-labeled proteins were carried out as described previously ([11]).
Measurements were conducted on a T200 (Cytiva) and data analyzed using the Biacore Insight Evaluation Software. Experiments were performed at 4 °C in multicycle kinetics mode and fit using the equilibrium steady state affinity model (1:1 Langmuir binding isotherm). For experiments measuring the binding of the 2AcK peptide, biotinylated BET BDs were immobilized on a biotin CAP chip (Cytiva) with a target density of ∼1000 to 2000 RU and peptide was flowed over the chip. A buffer comprising 20 mM Mes (pH 6.5), 150 mM NaCl, 0.05% (v/v) Tween-20 was used as the running buffer. […]

BRD3–BD2 = molecular target: T1, BRD3–BD2 (Homo sapiens, UniProt Q15059); assay: SPR binding of peptides to BET bromodomains; conditions: peptide flowed
T1 construct: BRD3 (BD1: 25–147; BD2: 307–419); His tag (N); biotinylation (Avi-type acceptor, vector pQE80L-Navi) (N); made in house; host or cells: Escherichia coli
T1 sequence (Q15059 307-419): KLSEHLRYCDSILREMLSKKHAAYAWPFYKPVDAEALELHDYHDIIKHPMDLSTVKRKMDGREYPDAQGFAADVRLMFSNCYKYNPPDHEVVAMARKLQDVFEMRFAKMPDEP
Excerpt: as §1
(§2) Measurements were conducted on a T200 (Cytiva) and data analyzed using the Biacore Insight Evaluation Software. Experiments were performed at 4 °C in multicycle kinetics mode and fit using the equilibrium steady state affinity model (1:1 Langmuir binding isotherm). For experiments measuring the binding of the 2AcK peptide, biotinylated BET BDs were immobilized on a biotin CAP chip (Cytiva) with a target density of ∼1000 to 2000 RU and peptide was flowed over the chip. A buffer comprising 20 mM Mes (pH 6.5), 150 mM NaCl, 0.05% (v/v) Tween-20 was used as the running buffer. For experiments measuring the binding of 1AcK.4E and 2AcK.4E, C-terminally biotinylated variants of the peptides were immobilized on a CM5 chip (Cytiva), which had been amine-coupled with streptavidin, to a target density of ∼50 to 100 RU and unlabeled BET BDs were flowed over the chip. A buffer comprising 20 mM Hepes (pH 7.5), 150 mM NaCl, and 0.05% (v/v) Tween-20 was used as the running buffer.

BRD4–BD2 = molecular target: T2, BRD4–BD2 (Homo sapiens, UniProt O60885); assay: SPR binding of peptides to BET bromodomains; conditions: SPR 4 °C; biotinylated BD immobilized on biotin CAP chip, peptide flowed; 20 mM Mes pH 6.5, 150 mM NaCl, 0.05% Tween-20; steady state 1:1 fit; geometric mean of minimum three measurements
T2 construct: BRD4 (BD1: 42–168; BD2: 348–464); His tag (N); biotinylation (Avi-type acceptor, vector pQE80L-Navi) (N); made in house; host or cells: Escherichia coli
Excerpt: as §1, §2

BRD2–BD2 = molecular target: T3, BRD2–BD2 (Homo sapiens, UniProt P25440); assay: SPR binding of peptides to BET bromodomains; conditions: peptide flowed
T3 construct: human BRD2 (BD1: 65–194; BD2: 347–455); His tag (N); biotinylation (Avi-type acceptor, vector pQE80L-Navi) (N); made in house; host or cells: Escherichia coli
T3 sequence (P25440 347-455): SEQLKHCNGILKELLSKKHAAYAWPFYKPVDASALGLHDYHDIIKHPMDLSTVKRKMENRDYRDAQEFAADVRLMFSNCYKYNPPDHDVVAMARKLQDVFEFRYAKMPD
Excerpt: as §1, §2

BRD3–BD1 = molecular target: T4, BRD3–BD1 (Homo sapiens, UniProt Q15059); assay: Isothermal titration calorimetry (ITC); conditions: ITC 25 °C, BRD3–BD1 titrated into peptide; fit to binding isotherm
T4 construct: BRD3 (BD1: 25–147; BD2: 307–419); His tag (N); biotinylation (Avi-type acceptor, vector pQE80L-Navi) (N); made in house; host or cells: Escherichia coli
T4 sequence (Q15059 25-147): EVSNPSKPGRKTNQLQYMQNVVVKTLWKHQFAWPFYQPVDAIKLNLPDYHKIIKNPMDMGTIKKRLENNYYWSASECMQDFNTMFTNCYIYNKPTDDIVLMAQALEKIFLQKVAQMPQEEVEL
Excerpt: as §1
The affinities and stoichiometry for the interaction of BRD3–BD1 with 2AcK and 2AcK.4E peptides were determined using a MicroCal PEAQ ITC (Malvern Instruments). Titrations of BRD3–BD1 (1 mM) into peptide (25–50 μM) were carried out at 25 °C using a 0.2 μl initial injection and 20 to 24 subsequence 1 to 3 μl injections. Data were analyzed using Malvern MicroCal PEAQ ITC Software, using a protein into buffer baseline correction and fitted with a one-site binding model.

[3] = Fig. 2A, one titration, fit to 1:1 binding model, BD immobilized, Mes pH 6.5, 4 °C
[4] = SPR 4 °C, biotinylated BD immobilized on biotin CAP chip, 20 mM Mes pH 6.5, 150 mM NaCl, 0.05% Tween-20, steady state 1:1 fit, geometric mean of minimum three measurements

Row | Substance | Solubility of the peptide (in words) [1] | Kd [2] [nM] | KD on plot, typical SPR titration, BRD3-BD2 (BRD3–BD2; [3]) | KD (SPR) BRD3–BD2 (BRD3–BD2; [4]) | KD (SPR) BRD4–BD2 (BRD4–BD2) | KD on plot, typical SPR titration, BRD2-BD2 (BRD2–BD2; [3]) | KD (SPR) BRD2–BD2 (BRD2–BD2; [4]) | N value (stoichiometry) from ITC fit (BRD3–BD1)
1 | ALLLAKLYHF [1AcK] | not soluble at concentrations high enough to allow measurements to be made |  |  |  |  |  |  | 
2 | Ac-AQRSLK(Ac)LLK(Ac)HLYH-NH2 (C-terminus assumed) [2AcK] | slightly more soluble | 1000 to 2000 | No binding | no measurable binding | a small degree of binding observed | No binding | no measurable binding | ~2.5
